Five compounds from patent publication US20040097433A1, “Chroman derivatives for the reduction of inflammation symptoms” (priority 2002, published 2004) can be followed below.

The subject of one experiment is CRP. The experiment can be described thus: Human Hep3B cells CRP assay. As to conditions: for reduction of CRP levels (in words): CRP assay of Example 1A; for EC50: Homo sapiens, 72 h, Hep3B cells stimulated with IL-1β, IL-6 and dexamethasone, three days, CRP ELISA on supernatant, normalized to cell count, read-out: EC50 for reducing CRP levels. Type of experiment: cell-based. How it is done: In studies carried out in support of the present invention, a combination of Interleukin-1β, IL-6, and dexamethasone is used to induce CRP production, and counter-agents are tested for their ability to reduce this production in cultured liver cells, as detailed in Example 1A. The assay is performed on cells grown in 96-well format allowing high throughput screening of compounds. As described herein, chroman derivatives were able to reduce CRP levels in an assay such as the one described in Example 1A.
A. Human Hep3B Cells—CRP assay. Hep3B Cell Line is obtained from the American Type Culture Collection (ATCC Catalog No. HB-8064). The Hep3B cell line was derived from liver tissue of […]. The cells are epithelial in morphology and produce tumors in nude mice. The cells produce α-fetoprotein, hepatitis B surface antigen, albumin, α-2-macroglobulin, α-1-antitrypsin, transferrin, plasminogen, complement C3 and β-lipoprotein (Knowles B B, et al., Science, 1980, 209:497499). This cell line has been widely used to study hepatocyte cytokine and acute phase protein release (e.g., Damtew B, et al., 1993, J. Immunol. 150:4001-4007).
HEP3B cells are grown in Minimum Essential Medium (MEM; GIBCO) supplemented with 10% Fetal Bovine Serum (FBS; Hyclone), 1× Penicillin/Streptomycin (GIBCO, Cat#. 15140-122) and 0.1 mM non-essential amino acids (GIBCO, Catalog No. 11140-050). Cells are thawed and transferred to warm medium according to standard methods known in the art.
Cells are incubated in flasks at 37° C. with 5% CO2 in an air atmosphere incubator. HEP3B growth media is changed every 2 days until the cells reach 70-80% confluence (approx. 3-4 days). For assay, the cells are transferred to 96-well plates, seeded at 5000 cells per well in culture media, and left to grow for 7 days in a 37° C. incubator (air supplemented with 5% CO2). Media is replaced daily until assay. […]
100 μl HRP-conjugated rabbit anti-human CRP (DAKO) diluted 1:500 (in CRP wash buffer) is added to each well, followed by incubation for 30 minutes at 37° C. […] Finally, 50 μl of 1M H2SO4 is added to each well and absorbance at 450 nm is immediately measured in a microtiter spectrophotometer.
CRP measured as above is normalized to cell count per well, using a cell viability assay, such as the Cell Tracker Green assay. […] Plates are immediately read using a Fluoroskan® flourometer with a 485 excitation/538 emission filter pair.
On the technique in general: ELISA stands for enzyme-linked immunosorbent assay.

The test system of another experiment is ELAM (E-selectin). The experiment is described as follows: Cell-ELAM (E-selectin) assay. Type of experiment: cell-based. Particulars: Endothelial cell, 6 h, endothelial cells stimulated with LPS and IL-1β for 6 hours; E-selectin antibody ELISA; read-out: EC50 for reducing the expression of ELAM. From the text: Another useful cell screening assay, exemplified herein in Example 1B, is the E-selectin (ELAM) production assay, which measures activity of test compounds in reducing expression of ELAM in activated endothelial cells. Briefly, endothelial cells are activated by adding known activators such as lipopolysaccharide, TNF-α, or IL-1β, alone or in some combination. Activated cells produce ELAM, which can be measured using, for example, an E-selectin monoclonal antibody-based ELISA assay. In studies carried out in support of the present invention, ELAM production was decreased. As described herein, chroman derivatives were able to reduce ELAM production in an assay such as the one described in Example 1B.
B. Cell-ELAM Assay. Endothelial-Leukocyte Adhesion Molecule (ELAM), also known as E-selectin, is expressed on the surface of endothelial cells. In this assay, lipopolysaccharide (LPS) and IL-1β are used to stimulate the expression of ELAM; test agents are tested for their abilities to reduce this expression, in accordance with studies showing that reduction of leukocyte adhesion to endothelial cell surface is associated with decreased cellular damage (e.g., Takada, M., Et al., Transplantation 64: 1520-25, 1997; Steinberg, J. B., et al., J. Heart Lung Trans. 13:306-313, 1994).
Endothelial cells may be selected from any of a number of sources and cultured according to methods known in the art; including, for example, coronary artery endothelial cells, human brain microvascular endothelial cells (HBMEC; Hess, D. C., et al., Neurosci. Lett. 213(1): 37-40,1996), or lung endothelial cells. Cells are conveniently cultured in 96-well plates. […] Wells are allowed to develop for 35 minutes, before measurement at 402 nm in a Fluoroskan® Reader with shake program for 10 seconds. Positive results are recorded as a decrease in ELAM concentration in tested wells, as compared to control wells.

Another experiment deals with CD-1 mice. The experiment is described as follows: Arachidonic acid ear inflammation model. The class given is in vivo, mouse. Particulars: topical to left ear, 20 μL in 70% ethanol/30% propylene glycol; ear punch weight difference one hour after treatment. On the procedure:
This assay measures the ability of test compounds to prevent or reduce inflammation secondary to oxazolone or arachidonic acid.
A. Arachidonic acid. Albino male CD-1 mice, 7-9 weeks old were used in this test. A 20% (w/v) arachidonic acid solution in acetone was prepared. Twenty microliters of the arachidonic acid solution was applied to the dorsal left ear of the mouse. Immediately thereafter, test compounds (20 μL in 70% ethanol/30% propylene glycol) were applied to the left ear. The untreated right ears served as control. Mice are sacrificed by CO2 inhalation, one hour after treatment. The left and right ears were removed and 7 mm punch biopsies taken from each. The punch biopsies were weighed, and the differences calculated.

A word on the EC50: it is the concentration at which the effect is half-maximal. With `COC(=O)CCC1(C)CCc2cc(O)c(C)c(C)c2O1` (stereo not drawn) [3-(6-hydroxy-2,7,8-trimethyl-chroman-2-yl)propionic acid methyl ester], in the experiment on CRP, the “reduction of CRP levels (in words)” value is “effective at reducing CRP levels” and the EC50 lay within 10 to 30 µM.
In the case of `Cc1c(C)c2c(c(C)c1O)CCC(C)(C(=O)NCC1C3CC4CC(C3)CC1C4)O2` (stereo not drawn) [6-Hydroxy-2,5,7,8-tetramethyl-chroman-2-carboxylic acid (adamantan-2-ylmethyl)-amide], the EC50 in the experiment on ELAM (E-selectin) was in the range of 10 to 100 µM.
Consider `CC1(CCC(=O)O)CCc2ccc(O)c(O)c2O1` (stereo not drawn) [3-(7,8-Dihydroxy-2-methyl-chroman-2-yl)-propionic acid], for which the EC50 in the experiment with ELAM (E-selectin) is 10 to 100 µM. The “protection in arachidonic acid ear inflammation assay” value in the experiment with CD-1 mice was “about 40%”.
Taken in the same sequence, the figures for `COC(=O)CCC1(C)CCc2c(Br)c(O)c(C)c(C)c2O1` (stereo not drawn) [3-(5-Bromo-6-hydroxy-2,7,8-trimethyl-chroman-2-yl)-propionic acid methyl ester] were 10 to 100 µM and “about 40%”.
Regarding `Cc1c(O)cc2c(c1C)OC(C)(CCC(=O)O)CC2` (stereo not drawn) [3-(6-hydroxy-2,7,8-trimethyl-chroman-2-yl)-propionic acid], in the experiment on CRP, the “reduction of CRP levels (in words)” value is “effective at reducing CRP levels” and the EC50 is 40 to 60 µM.
